Measured values from patent US7304166B2, “Benzenesulfonate salt of 4-fluoro-2-cyanopyrrolidine derivatives” (Taisho Pharmaceutical Co., Ltd., priority 2002, dated 2007).

What was measured:
Assay type in all cases: physicochemical
[1] = Testing for weight change under humidified conditions; conditions: room temperature; for Change in weight / State: desiccator containing water
Method: Each analyte (10.0 mg) was metered into a microtube (diameter: 8 mm, length: 50 mm) and allowed to stand in a desiccator containing water in such a manner as to keep the tube from coming into contact with water. The desiccator was allowed to stand at room temperature. The analytes were monitored for their state and measured for their weight with time. Changes in weight were expressed as percentages (%).

[2] = Solid-state stability testing (remaining percentage by HPLC)
Method: Each analyte (about 1 mg) was precisely metered and stored in a screw-capped test tube covered with aluminum foil for light shielding, which was sealed under heated conditions (70° C.) or opened under heated and humidified conditions (40° C., 75% RH). The remaining percentage of each drug was measured in the following manner. After completion of a given period of storage, the test tubes were supplemented with 10 ml HPLC mobile phase to dissolve the analytes and then provided for quantification by HPLC. The results were compared in area with the initial values obtained before heating or before heating and humidification to calculate the remaining percentage of drugs.
Column temperature: 40° C.
Detection: UV absorptiometer (Detection wavelength: 210 nm)
Mobile phase: water/acetonitrile/phosphoric acid/SDS (700:300:1:2)

[3] = Compatibility testing with additives (remaining percentage by HPLC); conditions: 65° C. for 1 week, sealed, methanesulfonate salt
Method: This testing was performed according to the report of Serajuddin A. T. M. et al. (J. Pharm. Sci., 88, 696-704, 1999). A drug substance and additives were metered into a screw-capped test tube according to Recipe A (10 mg drug substance, 68 mg crystalline cellulose, 2 mg magnesium stearate) or Recipe B (10 mg drug substance, 68 mg lactose, 2 mg hydrogenated oil) and mixed in a rotary mixer (MIX-ROTAR VMR-5, Iuchi Seieido Co., Ltd., Japan) for 1 hour. The mixture according to Recipe A or B was further stirred using a vortex mixer (TOUCH MIXER MT-31, Yamato Scientific Co., Ltd., Japan), provided that Recipe A was supplemented with no additional ingredient, while Recipe B was supplemented with 16 μl purified water. The mixtures were stored at 65° C. for 1 week under sealed and completely light-shielded conditions and then measured for drug content after storage to calculate the remaining percentage of each drug in each recipe.
The drug content was determined in the following manner. […] The resulting solutions were each filtered through a 0.45 μm membrane filter, 5 ml of which was sampled and filled up with 50% methanol in a 10 ml measuring flask for use as a sample solution and then quantified by HPLC. […]

[4] = humidified conditions, over the test period
[5] = 40° C., 75% RH for 1 month, opened, light-shielded
[6] = 70° C. for 3 days, sealed, light-shielded

Change in weight ([1]; Day 1)	Change in weight ([1]; Day 2)	State ([1]; Day 2)	State under humidified conditions [1, 4]	Remaining percentage of drug [2, 5]	Remaining percentage of drug [2, 6]	Remaining percentage of drug ([3]; Recipe A (crystalline cellulose, magnesium stearate))	Remaining percentage of drug ([3]; Recipe B (lactose, hydrogenated oil, purified water))	State ([1]; Day 3)	Change in weight under humidified conditions [1, 4]	Remaining percentage of drug ([2]; under either condition (70° C. 3 days; 40° C., 75% RH 1 month))	State ([1]; Day 1)	SMILES
+28%	+71%	Deliquescence	deliquesced	95.9%	95.5%	91.6%	74.5%	–	–	–	–	CC(C)(CO)NCC(=O)N1C[C@@H](F)C[C@H]1C#N.CS(=O)(=O)O [Reference Example 2, (2S,4S)-2-cyano-4-fluoro-1-[(2-hydroxy-1,1-dimethyl)ethylamino]acetylpyrrolidine methanesulfonate salt]
–	–	–	no deliquescence	99.6%	99.3%	–	–	No change	no change in weight	≥ 99%	–	CC(C)(CO)NCC(=O)N1C[C@@H](F)C[C@H]1C#N.O=S(=O)(O)c1ccccc1 [Example 1, (2S,4S)-2-cyano-4-fluoro-1-[(2-hydroxy-1,1-dimethyl)ethylamino]acetylpyrrolidine benzenesulfonate salt]
+44%	–	–	deliquesced	92.6%	97.0%	–	–	–	–	–	Deliquescence	CC(C)(CO)NCC(=O)N1C[C@@H](F)C[C@H]1C#N.Cl [Reference Example 1, (2S,4S)-2-cyano-4-fluoro-1-[(2-hydroxy-1,1-dimethyl)ethylamino]acetylpyrrolidine hydrochloride salt]
